Data as given in ChEMBL document CHEMBL1201862, “PubChem BioAssay data set” (2004).
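Values below derive from 48-hour exposures of cells grown in 96-well plates, with endpoints linearly interpolated between the two concentrations bracketing the appropriate inhibition level. GI50 is the concentration that inhibits growth by half.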 Activity calls are given as the source filed them. Rule as the data show it: active = GI50 up to about 1.1 µM and inactive = higher.

What was measured:
Assay in all cases: inhibition of tumour cell growth, NCI panel, 48 h
[1] = tested on: 786-0
[2] = tested on: ACHN
[3] = tested on: EKVX
[4] = tested on: HOP-62
[5] = tested on: HOP-92
[6] = tested on: KM-20L2
[7] = tested on: Malme-3M
[8] = tested on: NCI-H23
[9] = tested on: NCI-H460
[10] = tested on: OVCAR-3
[11] = tested on: OVCAR-4
[12] = tested on: RPMI-8226
[13] = tested on: SF-295
[14] = tested on: SK-MEL-2
[15] = tested on: SK-MEL-5
[16] = tested on: SK-OV-3
[17] = tested on: SNB-75
[18] = tested on: TK-10
[19] = tested on: UACC-257

Measured: GI50

Cc1ccc(NC(=O)C(=O)C(C#N)c2ccccc2C)cc1C (stereo not given)
inactive: [1] > 68.2 µM | [2] > 100 µM | [3] > 100 µM | [4] > 100 µM | [5] > 100 µM | [6] > 79.8 µM | [7] > 100 µM | [8] > 100 µM | [9] > 48.5 µM | [10] > 100 µM | [11] > 100 µM | [12] > 57.8 µM | [13] > 100 µM | [14] > 100 µM | [15] > 100 µM | [16] > 100 µM | [17] > 69.3 µM | [18] > 100 µM | [19] > 100 µM

Cc1cc(C)[n+]2c(c1)C=CC2.[O-][Cl+3]([O-])([O-])[O-]
inactive: [1] 37.2 µM | [2] 17.7 µM | [3] 21.6 µM | [4] 57.1 µM | [5] 8.57 µM | [6] 21.3 µM | [7] 1.65 µM | [8] 15.7 µM | [9] 34.8 µM | [10] 11.7 µM | [11] 49.9 µM | [13] 25.1 µM | [14] 11 µM | [15] 13.9 µM | [17] 6.05 µM | [18] 92 µM | [19] 11.5 µM

COc1ccc(CC#C/C=C/C(=O)NCC(C)C)cc1
inactive: [1] > 100 µM | [2] > 100 µM | [3] > 100 µM | [5] > 100 µM | [6] > 100 µM | [7] > 100 µM | [8] > 100 µM | [9] > 100 µM | [10] > 100 µM | [11] > 100 µM | [12] > 100 µM | [13] > 100 µM | [14] > 100 µM | [15] > 100 µM | [16] > 100 µM | [17] 55 µM | [18] > 100 µM | [19] > 100 µM

O=C(OCc1nc2ccc(Br)cc2c(=O)n1-c1ccccc1)c1ccccc1O
inactive: [1] 74.8 µM | [2] 70.5 µM | [3] 66.1 µM | [4] > 100 µM | [5] > 100 µM | [6] > 100 µM | [7] > 100 µM | [8] 37.3 µM | [9] > 100 µM | [10] 2.32 µM | [11] 34.1 µM | [12] 29.4 µM | [13] > 100 µM | [14] 90.4 µM | [15] 18.1 µM | [16] > 100 µM | [17] 28.4 µM | [18] > 100 µM | [19] 61.5 µM

CC(=O)OC1COC(N2C(=O)C(=O)c3ccccc32)C(OC(C)=O)C1OC(C)=O (stereo not given)
inactive: [1] > 100 µM | [2] > 100 µM | [3] > 100 µM | [4] > 100 µM | [5] > 100 µM | [6] > 100 µM | [7] > 100 µM | [8] > 100 µM | [9] > 100 µM | [10] > 100 µM | [11] > 100 µM | [12] > 100 µM | [13] > 100 µM | [14] > 100 µM | [15] > 100 µM | [16] > 100 µM | [17] > 100 µM | [18] > 100 µM | [19] > 100 µM

CN(C)c1nc(N(C)C)sc(=O)n1
inactive: [1] > 100 µM | [2] > 100 µM | [3] > 100 µM | [4] > 100 µM | [5] > 100 µM | [6] > 100 µM | [8] > 100 µM | [9] > 100 µM | [11] > 100 µM | [12] > 100 µM | [13] > 100 µM | [14] > 100 µM | [15] > 100 µM | [16] > 100 µM | [17] > 100 µM | [18] > 100 µM | [19] > 100 µM

CC(=O)C1=C(C)NC2C=CC=CN12 (stereo not given)
inactive: [1] > 100 µM | [2] > 100 µM | [3] > 100 µM | [4] > 100 µM | [5] > 100 µM | [6] > 100 µM | [7] > 100 µM | [8] > 100 µM | [9] > 100 µM | [10] > 100 µM | [11] > 100 µM | [12] > 100 µM | [13] > 100 µM | [14] > 100 µM | [15] > 100 µM | [16] > 100 µM | [17] > 100 µM | [18] > 100 µM | [19] > 100 µM

N#CC(/C(CCCC(=O)Nc1cccc([N+](=O)[O-])c1)=N/NC(=O)c1cc2ccccc2cc1O)c1ccccc1 (stereo not given)
inactive: [1] 24.2 µM | [2] 34.3 µM | [3] 23.2 µM | [4] 60.7 µM | [5] 29.8 µM | [6] 38 µM | [7] 67.1 µM | [8] 20 µM | [9] 21.2 µM | [10] 25.8 µM | [11] 31.1 µM | [12] 35.4 µM | [13] 39.1 µM | [15] 21.2 µM | [16] 61.8 µM | [17] > 100 µM | [18] 31.1 µM | [19] 24.4 µM

COc1cc2c(cc1OC)C(C(CBr)CBr)N(C1CCCC1)CC2 (stereo not given)
inactive: [1] > 100 µM | [2] > 100 µM | [3] > 100 µM | [4] > 100 µM | [5] 41.3 µM | [6] 1.46 µM | [7] > 100 µM | [8] > 100 µM | [9] > 100 µM | [10] > 100 µM | [11] > 100 µM | [12] > 100 µM | [13] > 100 µM | [14] > 100 µM | [15] > 100 µM | [16] > 100 µM | [17] > 100 µM | [18] > 100 µM | [19] > 100 µM

C[N+](C)(C)CC1CCCCC1O (stereo not given)
inactive: [1] > 100 µM | [2] > 100 µM | [4] > 100 µM | [5] > 100 µM | [6] > 100 µM | [8] > 100 µM | [9] > 100 µM | [10] > 100 µM | [11] > 100 µM | [12] > 100 µM | [13] > 100 µM | [14] > 100 µM | [15] > 100 µM | [16] > 100 µM | [17] > 100 µM | [18] > 100 µM | [19] > 100 µM

CCCC(C)NC1=C(NC(C)=O)C(=O)c2ccccc2C1=O (stereo not given)
inactive: [1] > 100 µM | [2] > 100 µM | [3] > 100 µM | [4] > 100 µM | [5] 47.9 µM | [6] > 100 µM | [7] 36.1 µM | [8] > 100 µM | [9] > 100 µM | [10] > 100 µM | [11] > 100 µM | [13] > 100 µM | [14] > 100 µM | [15] 73.8 µM | [16] > 100 µM | [17] > 100 µM | [18] > 100 µM | [19] > 100 µM
